EP4782431A1 (Suzhou Merna Therapeutics Co. Ltd, priority 2023, dated 2025)

Legend:
[1] = stability of crystal forms (XRPD, HPLC, color); type: physicochemical; settings: for Crystal form: XRPD
Experimental: A 2θ scanning angle of the sample was 3°-40°, a scanning step size was 0.02°, and a scanning time per step was 0.12 s/step. An optical tube voltage and a current were 40 kV and 40 mA, respectively. During sample preparation, an appropriate amount of the sample was placed on a sample tray and flattened with a tool such as a glass slide to ensure a smooth and even surface.
An Agilent 1260 infinityII binary pump was used for solubility and stability testing.
The stability of samples under these conditions was detected by XRPD and HPLC, and whether the samples had color changes was observed.
(§1) A certain amount of the crystal form C of the compound of formula (I) was weighed and placed in an open container at 25°C/92.5%RH for 1 week. A certain amount of the crystal form C of the compound of formula (I) was weighed and placed in a closed container at 60°C for 1 week. The stability of samples under these conditions was detected by XRPD and HPLC, and whether the samples had color changes was observed. Table 16 Stability test results of the crystal form C of the compound of formula (I)
as §1, with “form D” for “form C”, “Table 17” for “Table 16”
as §1, with “form E” for “form C”, “Table 18” for “Table 16”

[2] = hygroscopicity by dynamic vapor sorption (DVS); type: physicochemical; settings: for 1st adsorption Percentage of weight change / 1st desorption Percentage of weight change / 2nd adsorption Percentage of weight change / 2nd desorption Percentage of weight change: 40-0-95-0-40%RH, 240 min per step
Experimental: ProUmid SPSx-1µ Advance was used for analysis of a sample. The sample to be tested was approximately in an amount of 5-50 mg. A temperature in a test chamber was controlled at 25±1°C, a relative humidity cycle was […], a step size was 10%, an equilibrium time was 240 minutes per step, and mass data was recorded every 20 seconds.
A DVS cycle was 40-0-95-0-40%RH. XRPD detection was performed on samples after the DVS testing to determine whether crystal form transformation occurred.

[3] = test system: rat models with a hand-foot skin reaction; test: rat models with a hand-foot skin reaction; type: in vivo, SD rats
Experimental: After adaptive feeding for one week, SD rats (with a body weight of approximately 200 g) were randomly divided into groups with balanced body weight, with 12 rats in each group. Modeling drugs (including sorafenib, erlotinib, afatinib, and osimertinib) were respectively dissolved in a solution containing 5% of DMSO, 45% of PEG400, and 50% of H2O, and the modeling drugs were diluted to required concentrations and then administered once daily by gavage at doses shown in Table 3. After administration by gavage for 1 hour, 0.05 g of ointments containing different mass proportions of test compounds were evenly applied to left paws of the rats, a blank matrix ointment was applied to right paws of the rats to serve as a self-control, and no ointment was applied to the rats in a blank control group. After drug application, four limbs were continuously immobilized for 2 hours, then wiped with clean water to remove the residual drugs, removed from immobilization, and restored to free movement. The modeling drugs, the blank matrix ointment, and the ointments containing the test compounds were all administered once daily. After continuous administration for 30 days, the rats were euthanized, and paw plantar skin tissues were collected, fixed in 10% neutral formalin, […]. The ointments for the test compounds were prepared by mixing the compounds, white beeswax, white petrolatum, and light liquid paraffin in specific ratios (weight ratios of 3 ointments were respectively 1:18:58:23, 3:18:57:22, and 10:20:40:30). The blank matrix ointment was prepared by mixing white beeswax, white petrolatum, and light liquid paraffin in a specific ratio (weight ratio of 18:60:22).
Tissue staining: After dewaxing and rehydration, the paw plantar skin tissue sections of the above rats were stained in a hematoxylin solution for several minutes, cleaned, and placed in 1% acid alcohol for soaking until the sections faded to light blue-red. After cleaning with running water for 5 minutes, the sections were stained with eosin for 2-3 minutes, cleaned to remove excess dyes, dehydrated, then permeabilized by adding xylene for several minutes, and sealed and fixed with a neutral resin. The stratum corneum was observed under an optical microscope, and the thickness of the epidermal stratum corneum was measured using Dmetrix software.
Immunohistochemical staining: After dewaxing and hydration, the paw plantar skin tissue sections of the above rats were incubated with 3% H2O2 at room temperature for 30 minutes and blocked with 10% goat serum for 30 minutes after antigen retrieval. A KRT1 antibody (Abcam, ab93652) and a Loricrin antibody (Abcam, ab183646) were added dropwise, the sections were incubated overnight at 4°C, and an HRP secondary antibody (ZSGB-BIO, PV-6001) and a DAB kit (ZSG-BIO, ZLI9017) were added for color development. The sections were re-stained with hematoxylin, cleaned, and sealed and fixed with a neutral resin, and the expression amounts of KRT1 and Loricrin were observed under an optical microscope.
An incidence rate calculation method involves a proportion of animals in each group meeting the above criteria for determining successful modeling, that is, incidence rate = (number of successfully modeled rats/total number of rats in the group)*100%. […]

[4] = modeling drug alone by gavage once daily 30 days (Sorafenib 100, Erlotinib 70, Afatinib 50, Osimertinib 60 mg/kg), no test compound

Compound: NC(=O)[C@H]1CCCc2c1[nH]c1ccc(Cl)cc21 [Crystal form A, (S)-6-chloro-2,3,4,9-tetrahydro-1H-carbazole-carboxamide]
- Color ([1]; 25°C/92.5%RH, open, 1 week): No change
- Degradation (%) ([1]; 25°C/92.5%RH, open, 1 week): None
- Purity (%) ([1]; 25°C/92.5%RH, open, 1 week): 99.8%
- Color ([1]; 60°C, closed, 1 week): No change
- Degradation (%) ([1]; 60°C, closed, 1 week): None
- Purity (%) ([1]; 60°C, closed, 1 week): 99.8%
- Purity (%) ([1]; Initial): 99.8%
- Hygroscopicity Conclusion ([2]; DVS at 25°C, Table 15): Slight hygroscopicity
- 1st adsorption Percentage of weight change ([2]; Relative humidity 0% at 25°C): 0.3%
- 1st desorption Percentage of weight change ([2]; Relative humidity 0% at 25°C): 0.3%
- 2nd adsorption Percentage of weight change ([2]; Relative humidity 0% at 25°C): 0.2%
- 2nd desorption Percentage of weight change ([2]; Relative humidity 0% at 25°C): 0.2%
- 1st adsorption Percentage of weight change ([2]; Relative humidity 10% at 25°C): 0.1%
- 1st desorption Percentage of weight change ([2]; Relative humidity 10% at 25°C): 0.3%
- 2nd adsorption Percentage of weight change ([2]; Relative humidity 10% at 25°C): 0.3%
- 2nd desorption Percentage of weight change ([2]; Relative humidity 10% at 25°C): 0.3%
- 1st adsorption Percentage of weight change ([2]; Relative humidity 20% at 25°C): 0.3%
- 1st desorption Percentage of weight change ([2]; Relative humidity 20% at 25°C): 0.1%
- 2nd adsorption Percentage of weight change ([2]; Relative humidity 20% at 25°C): 0.3%
- 2nd desorption Percentage of weight change ([2]; Relative humidity 20% at 25°C): 0.2%
- 1st adsorption Percentage of weight change ([2]; Relative humidity 30% at 25°C): 0.3%
- 1st desorption Percentage of weight change ([2]; Relative humidity 30% at 25°C): 0.1%
- 2nd adsorption Percentage of weight change ([2]; Relative humidity 30% at 25°C): 0.1%
- 2nd desorption Percentage of weight change ([2]; Relative humidity 30% at 25°C): 0.3%
- 1st adsorption Percentage of weight change ([2]; Relative humidity 40% at 25°C): 0.1%
- 1st desorption Percentage of weight change ([2]; Relative humidity 40% at 25°C): 0.3%
- 2nd adsorption Percentage of weight change ([2]; Relative humidity 40% at 25°C): 0.3%
- 2nd desorption Percentage of weight change ([2]; Relative humidity 40% at 25°C): 0.4%
- 1st adsorption Percentage of weight change ([2]; Relative humidity 50% at 25°C): 0.0%
- 2nd desorption Percentage of weight change ([2]; Relative humidity 50% at 25°C): 0.1%
- 1st adsorption Percentage of weight change ([2]; Relative humidity 60% at 25°C): 0.4%
- 2nd desorption Percentage of weight change ([2]; Relative humidity 60% at 25°C): 0.4%
- 1st adsorption Percentage of weight change ([2]; Relative humidity 70% at 25°C): 0.4%
- 2nd desorption Percentage of weight change ([2]; Relative humidity 70% at 25°C): 0.4%
- 1st adsorption Percentage of weight change ([2]; Relative humidity 80% at 25°C): 0.5%
- 2nd desorption Percentage of weight change ([2]; Relative humidity 80% at 25°C): 0.2%
- 1st adsorption Percentage of weight change ([2]; Relative humidity 90% at 25°C): 0.5%
- 2nd desorption Percentage of weight change ([2]; Relative humidity 90% at 25°C): 0.6%
- 1st adsorption Percentage of weight change ([2]; Relative humidity 95% at 25°C): 0.7%
- 2nd desorption Percentage of weight change ([2]; Relative humidity 95% at 25°C): 0.7%
- XRPD after DVS testing ([2]; after DVS cycle 40-0-95-0-40%RH at 25°C): Crystal form A
- water absorption ([2]; from 40% to 95%RH, 25°C): 0.6%

Compound: C#Cc1cccc(Nc2ncnc3cc(OCCOC)c(OCCOC)cc23)c1 [Erlotinib, erlotinib, reference compound]
- KRT1 and Loricrin in tissues ([3]; rat, in vivo): significantly increased
- stratum corneum thickness of the paw plantar skin ([3]; rat, in vivo): significantly higher than that of normal rats

Compound: NC(=O)[C@H]1CCCc2c1[nH]c1ccc(Cl)cc21 [Crystal form D, (S)-6-chloro-2,3,4,9-tetrahydro-1H-carbazole-carboxamide]
- Color ([1]; 25°C/92.5%RH, open, 1 week): No change
- Degradation (%) ([1]; 25°C/92.5%RH, open, 1 week): 0.6%
- Purity (%) ([1]; 25°C/92.5%RH, open, 1 week): 99.2%
- Degradation (%) ([1]; 25°C/92.5%RH, open, 1 week, listed as crystal form D): 0.6%
- Color ([1]; 60°C, closed, 1 week): Changed
- Degradation (%) ([1]; 60°C, closed, 1 week): 1.1%
- Purity (%) ([1]; 60°C, closed, 1 week): 98.7%
- Crystal form ([1]; 60°C, closed, 1 week): D+F
- Degradation (%) ([1]; 60°C, closed, 1 week, listed as crystal form D): 1.1%
- Purity (%) ([1]; Initial): 99.8%

Compound: NC(=O)[C@H]1CCCc2c1[nH]c1ccc(Cl)cc21 [Crystal form E, (S)-6-chloro-2,3,4,9-tetrahydro-1H-carbazole-carboxamide]
- Color ([1]; 25°C/92.5%RH, open, 1 week): No change
- Degradation (%) ([1]; 25°C/92.5%RH, open, 1 week): 0.2%
- Purity (%) ([1]; 25°C/92.5%RH, open, 1 week): 99.2%
- Degradation (%) ([1]; 25°C/92.5%RH, open, 1 week, listed as crystal form E): 0.2%
- Color ([1]; 60°C, closed, 1 week): Changed
- Degradation (%) ([1]; 60°C, closed, 1 week): 3.0%
- Purity (%) ([1]; 60°C, closed, 1 week): 96.4%
- Crystal form ([1]; 60°C, closed, 1 week): E+F
- Degradation (%) ([1]; 60°C, closed, 1 week, listed as crystal form E): 3.0%
- Purity (%) ([1]; Initial): 99.4%

Compound: NC(=O)[C@H]1CCCc2c1[nH]c1ccc(Cl)cc21 [Crystal form C, (S)-6-chloro-2,3,4,9-tetrahydro-1H-carbazole-carboxamide]
- Color ([1]; 25°C/92.5%RH, open, 1 week): No change
- Degradation (%) ([1]; 25°C/92.5%RH, open, 1 week): 0.6%
- Purity (%) ([1]; 25°C/92.5%RH, open, 1 week): 99.1%
- Color ([1]; 60°C, closed, 1 week): Changed
- Degradation (%) ([1]; 60°C, closed, 1 week): 0.1%
- Purity (%) ([1]; 60°C, closed, 1 week): 99.6%
- Purity (%) ([1]; Initial): 99.7%

Compound: CN(C)C/C=C/C(=O)Nc1cc2c(Nc3ccc(F)c(Cl)c3)ncnc2cc1O[C@H]1CCOC1 [Afatinib, afatinib, reference compound]
- successful modeling rates for the hand-foot skin reaction ([3]; SD rats, once daily by gavage: sorafenib 100, erlotinib 70, afatinib 50, osimertinib 60 mg/kg): 66.7%
- KRT1 and Loricrin in tissues ([3]; immunohistochemical staining, successfully modeled rats, modeling drug alone): significantly increased
- Incidence rate Left paw [3, 4]: 8/12 (66.7%)
- Incidence rate Right paw [3, 4]: 8/12 (66.7%)
- stratum corneum thickness of the paw plantar skin ([3]; successfully modeled rats, modeling drug alone, vs normal rats): significantly higher than that of normal rats
